Laboratory results reported in PubChem BioAssay (NCI).
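96-well plates; 48 h exposure; 5 concentrations. Endpoints by linear interpolation between flanking doses. Not reached: highest tested concentration assigned. At the GI50, growth is halved. TGI marks complete inhibition of growth.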

Tests used:
Assay in all cases: growth of human tumour cells (NCI), 48 h
KM20L2 colon = tested on: KM20L2 colon
SN12C renal = tested on: SN12C renal
SK-MEL-2 melanoma = tested on: SK-MEL-2 melanoma
UACC-62 melanoma = tested on: UACC-62 melanoma
M14 melanoma = tested on: M14 melanoma
SNB-78 CNS = tested on: SNB-78 CNS
U251 CNS = tested on: U251 CNS
SK-MEL-28 melanoma = tested on: SK-MEL-28 melanoma
HCT-15 colon = tested on: HCT-15 colon
K-562 leukemia = tested on: K-562 leukemia
SR leukemia = tested on: SR leukemia
RXF 393 renal = tested on: RXF 393 renal
HCT-116 colon = tested on: HCT-116 colon
ACHN renal = tested on: ACHN renal
NCI-H522 lung = tested on: NCI-H522 lung
LXFL 529 NSCLC = tested on: LXFL 529 NSCLC
HOP-62 NSCLC = tested on: HOP-62 NSCLC
IGROV1 ovarian = tested on: IGROV1 ovarian
SF-539 CNS = tested on: SF-539 CNS
A549 NSCLC = tested on: A549 NSCLC
OVCAR-4 ovarian = tested on: OVCAR-4 ovarian
TK-10 renal = tested on: TK-10 renal
NCI-H226 lung = tested on: NCI-H226 lung
M19-MEL melanoma = tested on: M19-MEL melanoma
XF 498 CNS = tested on: XF 498 CNS
NCI-H460 lung = tested on: NCI-H460 lung
DLD-1 colon = tested on: DLD-1 colon
OVCAR-8 ovarian = tested on: OVCAR-8 ovarian
UO-31 renal = tested on: UO-31 renal
HCC-2998 colon = tested on: HCC-2998 colon
OVCAR-3 ovarian = tested on: OVCAR-3 ovarian
DMS 114 small cell lung = tested on: DMS 114 small cell lung
MOLT-4 leukemia = tested on: MOLT-4 leukemia
COLO 205 colon = tested on: COLO 205 colon
SW-620 colon = tested on: SW-620 colon
RPMI-8226 leukemia = tested on: RPMI-8226 leukemia
DMS 273 small cell lung = tested on: DMS 273 small cell lung
SK-MEL-5 melanoma = tested on: SK-MEL-5 melanoma
HOP-92 NSCLC = tested on: HOP-92 NSCLC
LOX IMVI melanoma = tested on: LOX IMVI melanoma
HL-60(TB) leukemia = tested on: HL-60(TB) leukemia
SNB-19 CNS = tested on: SNB-19 CNS
KM12 colon = tested on: KM12 colon
CCRF-CEM leukemia = tested on: CCRF-CEM leukemia
MALME-3M melanoma = tested on: MALME-3M melanoma
SF-268 CNS = tested on: SF-268 CNS
SK-OV-3 ovarian = tested on: SK-OV-3 ovarian
HT29 colon = tested on: HT29 colon
OVCAR-5 ovarian = tested on: OVCAR-5 ovarian

Q: Which results are given for `Cc1cc2c(cc1O)[nH]c1cc3c(cc12)C=CC(C)(C)O3`?
A: GI50 (KM20L2 colon): 9.35 µM; TGI (KM20L2 colon): > 25 µM; GI50 (SN12C renal): 6.32 µM; TGI (SN12C renal): 18.9 µM; TGI (SK-MEL-2 melanoma): > 25 µM; GI50 (UACC-62 melanoma): 6.75 µM; TGI (UACC-62 melanoma): > 25 µM; GI50 (M14 melanoma): 6.07 µM; TGI (M14 melanoma): 16.9 µM; TGI (SNB-78 CNS): > 25 µM; GI50 (U251 CNS): 6.06 µM; TGI (U251 CNS): 14.3 µM; GI50 (SK-MEL-28 melanoma): 14.5 µM; TGI (SK-MEL-28 melanoma): > 25 µM; GI50 (HCT-15 colon): 8.73 µM; TGI (HCT-15 colon): > 25 µM; TGI (K-562 leukemia): > 25 µM; GI50 (SR leukemia): 6.39 µM; TGI (SR leukemia): 24.9 µM; GI50 (RXF 393 renal): 4.93 µM; TGI (RXF 393 renal): 11.5 µM; GI50 (HCT-116 colon): 12.8 µM; TGI (HCT-116 colon): > 25 µM; GI50 (ACHN renal): 9.3 µM; TGI (ACHN renal): > 25 µM; GI50 (NCI-H522 lung): 8.39 µM; TGI (NCI-H522 lung): > 25 µM; GI50 (LXFL 529 NSCLC): 9.31 µM; TGI (LXFL 529 NSCLC): > 25 µM; GI50 (HOP-62 NSCLC): 7.95 µM; TGI (HOP-62 NSCLC): 24.4 µM; GI50 (IGROV1 ovarian): 22.9 µM; TGI (IGROV1 ovarian): > 25 µM; GI50 (SF-539 CNS): 4.08 µM; TGI (SF-539 CNS): 9.96 µM; GI50 (A549 NSCLC): 6.42 µM; TGI (A549 NSCLC): 21.6 µM; TGI (OVCAR-4 ovarian): > 25 µM; TGI (TK-10 renal): > 25 µM; GI50 (NCI-H226 lung): 18.9 µM; TGI (NCI-H226 lung): > 25 µM; GI50 (M19-MEL melanoma): 19.6 µM; TGI (M19-MEL melanoma): > 25 µM; TGI (XF 498 CNS): > 25 µM; GI50 (NCI-H460 lung): 5.36 µM; TGI (NCI-H460 lung): 12.4 µM; GI50 (DLD-1 colon): 12.7 µM; TGI (DLD-1 colon): > 25 µM; TGI (OVCAR-8 ovarian): 9.41 µM; GI50 (UO-31 renal): 11.4 µM; TGI (UO-31 renal): > 25 µM; GI50 (HCC-2998 colon): 6.73 µM; TGI (HCC-2998 colon): 14.5 µM; TGI (OVCAR-3 ovarian): 22.6 µM; TGI (DMS 114 small cell lung): > 25 µM; GI50 (MOLT-4 leukemia): 0.00323 µM; TGI (MOLT-4 leukemia): > 25 µM; TGI (COLO 205 colon): > 25 µM; GI50 (SW-620 colon): 7.64 µM; TGI (SW-620 colon): > 25 µM; TGI (RPMI-8226 leukemia): > 25 µM; GI50 (DMS 273 small cell lung): 5.04 µM; TGI (DMS 273 small cell lung): 12.2 µM; GI50 (SK-MEL-5 melanoma): 17.5 µM; TGI (SK-MEL-5 melanoma): > 25 µM; GI50 (HOP-92 NSCLC): 9.85 µM; TGI (HOP-92 NSCLC): > 25 µM; GI50 (LOX IMVI melanoma): 3.95 µM; TGI (LOX IMVI melanoma): 7.41 µM; GI50 (HL-60(TB) leukemia): 6.98 µM; TGI (HL-60(TB) leukemia): > 25 µM; TGI (SNB-19 CNS): > 25 µM; GI50 (KM12 colon): 5.26 µM; TGI (KM12 colon): 11.9 µM; GI50 (CCRF-CEM leukemia): 19.8 µM; TGI (CCRF-CEM leukemia): > 25 µM; GI50 (MALME-3M melanoma): 10.1 µM; TGI (MALME-3M melanoma): > 25 µM; GI50 (SF-268 CNS): 6.69 µM; TGI (SF-268 CNS): > 25 µM; TGI (SK-OV-3 ovarian): > 25 µM; GI50 (HT29 colon): 11.8 µM; TGI (HT29 colon): > 25 µM; TGI (OVCAR-5 ovarian): > 25 µM
